Measured values reported in US20210238225A1, “PEPTIDOMIMETIC INHIBITORS OF THE PEPTIDYL-PROLYL CIS/TRANS ISOMERASE (PIN1)” (DANA-FARBER CANCER INSTITUTE, INC., priority 2018, published 2021).
Read-outs that look alike come from different tables or passages of the source. Non-standard residues stand in square brackets, D forms with d. Residues, ends and D or L forms follow the SMILES beside them. *: point of attachment. Phe(4-F) = N[C@@H](Cc1ccc(F)cc1)C(=O)O; 2Nal = N[C@@H](Cc1ccc2ccccc2c1)C(=O)O; NH(4-Me-benzyl) = Cc1ccc(CN*)cc1; NMeF = CN[C@@H](Cc1ccccc1)C(=O)O; Cit = NC(=O)NCCC[C@H](N)C(=O)O; Pip = O=C(O)[C@@H]1CCCCN1; ClAc = O=C(CCl)*; NHcPr = C1CC1N*

What was measured:
Pin1 [1] = target: T1, Pin1 (Homo sapiens, UniProt Q13526); test: Lysate target engagement (pull down with biotinylated probes; competition assay); format: binding; set-up: endogenous in cells; host or cells: MDA-MB-231; settings: for Lysate Target Engagement?: TNBC-MDA-MB-231 lysate, biotin/dtb probes: pull down, others: competition, concentration under E5; for Lysate Target Engagement? concentration stated for the engagement or pull down: read with the E4 line of the same compound (complete, partial, probe pull down)
T1 sequence (Q13526 whole entry): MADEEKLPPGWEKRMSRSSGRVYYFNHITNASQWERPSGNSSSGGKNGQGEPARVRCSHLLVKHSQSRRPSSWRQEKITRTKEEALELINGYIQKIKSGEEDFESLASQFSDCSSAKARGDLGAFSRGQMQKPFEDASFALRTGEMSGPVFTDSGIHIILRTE
Protocol: (§1) TNBC-MDA-MB-231 cells were lysed in lysis buffer (50 mM Hepes pH 7.5, 150 mM NaCl, 1 mM ethylenediaminetetraacetic acid (EDTA), 10% v/v glycerol, 0.5% v/v NP-40, protease inhibitors (Roche)). After clarifying by centrifugation (14,000 rpm for 15 min at 4° C.), lysates were incubated with the indicated concentrations of candidate compound for 1 hour at 4° C. (500 μg of protein per sample, as determined by BCA). Lysates were then incubated with streptavidin agarose resin (30 μL of 1:1 beads: lysis buffer slurry) (Thermo Scientific™, cat. #20349) for 2 hours at 4° C. Beads were washed 4 times with 500 μL of washing buffer (50 mM Hepes, pH 7.5, 10 mM NaCl, 1 mM EDTA, 10% glycerol), then pelleted by centrifugation and dried. The beads were then boiled at 95° C. for 5 minutes in 30 μL of 2× LDS+10% β-mercaptoethanol. Lysates were probed for specified proteins by western blotting using the Bolt system (Life Technologies™).
as §1, with “mM EDTA,” for “mM ethylenediaminetetraacetic acid (EDTA),”, “by centrifugation,” for “by centrifugation (14,000 rpm for 15 min at 4° C.),”, “were pre-incubated” for “were incubated”, “of” for “of candidate”, “compound 18 overnight” for “compound for 1 hour”, “BCA). The lysates were then incubated with 1 μM of compound 2c (desthiobiotin probe) for 1 hour at 4° C.” for “BCA).”

Pin1 [2] = target: T1, Pin1; test: Cellular target engagement, live cell biotin competition assay in TNBC MDA-MB-231 cells; format: cell-based; set-up: endogenous in cells; host or cells: MDA-MB-231; settings: TNBC MDA-MB-231 cells; for Cellular Target Engagement?: 5 hours treatment, concentration under E7; for Cellular Target Engagement? concentration stated for complete engagement: read with the E6 line
Protocol: TNBC MDA-MB-231 cells were plated in 10 cm plates with 2.5 million cells per plate in 6 mL of media. The day after plating, cells were treated with the indicated concentrations of compound 18 for 5 hours. The cells were washed 2× with 0.9% NaCl (1 mL per 10 cm plate), and collected by scraping with a cell scraper. Cells were lysed in lysis buffer (50 mM Hepes pH 7.5, 150 mM NaCl, 1 mM EDTA, 10% v/v glycerol, 0.5% v/v […], protease inhibitors (Roche)) using 210 μL of cell lysis buffer per 10 cm plate of cells. After clarifying by centrifugation (14,000 rpm for 15 min at 4° C.), 5 μL of each lysate sample was combined with 5 μL of 2× LDS+10% β-mercaptoethanol, boiled for 5 minutes, and set aside for the input loading control (later to be loaded directly in the gel). Then, 200 μL of each lysate was then incubated with 1 μM of compound 2-32 (biotin probe compound) for 1 hour at 4° C. Lysates were then incubated with streptavidin agarose resin (30 μL of 1:1 beads: lysis buffer slurry) (Thermo Scientific™, cat. #20349) for 2 hours at 4° C. Beads were washed 4 times with 500 μL of washing buffer (50 mM Hepes, pH7.5, 10 mM NaCl, 1 mM EDTA, 10% glycerol), then pelleted by centrifugation and dried. The beads were then boiled at 95° C. for 5 minutes in 30 μL of 2× LDS+10% β-mercaptoethanol. Lysates were probed for specified proteins by western blotting using the Bolt system (Life Technologies™).

Pin1 (GST-Pin1) = Pin1 (GST-Pin1) (Homo sapiens, UniProt Q13526); test: Fluorescence polarization (FP) assay, binding to Pin1; settings: competition with fluorescein-labeled peptide probe, 12 hours pre-incubation at 4° C., Kenakin Ki equation
Sequence of Pin1 (GST-Pin1) (Q13526 whole entry): as above

NC(=O)NCCC[C@H](NC(=O)[C@H](Cc1c[nH]c2ccccc12)NC(=O)[C@@H]1CCCCN1C(=O)[C@H](CCC(=O)O)NC(=O)CCl)C(N)=O [Compound 2b-18, (S)-5-((S)-2-(((S)-1-(((S)-1-Amino-1-oxo-5-ureidopentan-2-yl)amino)-3-(1H-indol-3-yl)-1-oxopropan-2-yl)carbamoyl)piperidin-1-yl)-4-(2-chloroacetamido)-5-oxopentanoic acid] (ClAc-E[Pip]W[Cit]-NH2)
Lysate Target Engagement? (Pin1 [1]): Yes-Complete | Lysate Target Engagement? concentration stated for the engagement or pull down (Pin1 [1]): at 5 μM | Cellular Target Engagement? (Pin1 [2]): No

Cc1ccc(CNC(=O)[C@H](CCCNC(N)=O)NC(=O)[C@H](Cc2c[nH]c3ccccc23)NC(=O)[C@@H]2CCCCN2C(=O)[C@H](Cc2ccccc2)N(C)C(=O)CCl)cc1 [Compound 11, (S)—N—((S)-3-(1H-indol-3-yl)-1-(((S)-1-((4-methylbenzyl)amino)-1-oxo-5-ureidopentan-2-yl)amino)-1-oxopropan-2-yl)-1-(N-(2-chloroacetyl)-N-methyl-L-phenylalanyl)piperidine-2-carboxamide] (ClAc-[NMeF][Pip]W[Cit]-{NH(4-Me-benzyl)})
Ki (Pin1 (GST-Pin1); read-out: Ki, μM (FP Assay)): 0.01 µM | Cellular Target Engagement? (Pin1 [2]): Yes- | Cellular Target Engagement? concentration stated for complete engagement (Pin1 [2]): at 5 μM

COC(=O)CC[C@H](NC(=O)CCl)C(=O)N1CCCC[C@H]1C(=O)N[C@@H](Cc1c[nH]c2ccccc12)C(=O)N[C@@H](CCCNC(N)=O)C(=O)NCc1ccc(C)cc1 [Compound 11-4, Methyl (S)-5-((S)-2-(((S)-3-(1H-indol-3-yl)-1-(((S)-1-((4-methylbenzyl)amino)-1-oxo-5-ureidopentan-2-yl)amino)-1-oxopropan-2-yl)carbamoyl)piperidin-1-yl)-4-(2-chloroacetamido)-5-oxopentanoate] (ClAc-E(OMe)[Pip]W[Cit]-{NH(4-Me-benzyl)})
Ki (Pin1 (GST-Pin1); Ki, μM (FP Assay)): 0.03 µM | Cellular Target Engagement? (Pin1 [2]): No

COC(=O)CC[C@H](NC(=O)CCl)C(=O)N1CCCC[C@H]1C(=O)N[C@@H](Cc1c[nH]c2ccccc12)C(=O)N[C@@H](Cc1ccc(O)cc1)C(=O)NCc1ccc(C)cc1 [Compound 11-1, Methyl (S)-4-(2-chloroacetamido)-5-((S)-2-(((S)-1-(((S)-3-(4-hydroxyphenyl)-1-((4-methyl-benzyl)amino)-1-oxopropan-2-yl)amino)-3-(1H-indol-3-yl)-1-oxopropan-2-yl)carbamoyl)piperidin-1-yl)-5-oxopentanoate]
Ki (Pin1 (GST-Pin1); read-out: Ki, μM (FP Assay)): 0.176 µM | Lysate Target Engagement? (Pin1 [1]): No | Cellular Target Engagement? (Pin1 [2]): No

COC(=O)CC[C@H](NC(=O)CCl)C(=O)N1CCCC[C@H]1C(=O)N[C@@H](Cc1c[nH]c2ccccc12)C(=O)N[C@@H](Cc1ccc(F)cc1)C(=O)NCc1ccc(C)cc1 [Compound 11-3, Methyl (S)-4-(2-chloroacetamido)-5-((S)-2-(((S)-1-(((S)-3-(4-fluorophenyl)-1-((4-methylbenzyl)amino)-1-oxopropan-2-yl)amino)-3-(1H-indol-3-yl)-1-oxopropan-2-yl)carbamoyl)piperidin-1-yl)-5-oxopentanoate] (ClAc-E(OMe)[Pip]W[Phe(4-F)]-{NH(4-Me-benzyl)})
Ki (Pin1 (GST-Pin1); Ki, μM (FP Assay)): 0.19 µM | Cellular Target Engagement? (Pin1 [2]): Yes-Complete | Cellular Target Engagement? concentration stated for complete engagement (Pin1 [2]): at 15 μM

NC(=O)[C@H](Cc1ccc(F)cc1)NC(=O)[C@H](Cc1c[nH]c2ccccc12)NC(=O)[C@@H]1CCCCN1C(=O)[C@H](CCC(=O)O)NC(=O)CCl [Compound 2-27, (S)-5-((S)-2-(((S)-1-(((S)-1-Amino-3-(4-fluorophenyl)-1-oxopropan-2-yl)amino)-3-(1H-indol-3-yl)-1-oxopropan-2-yl)carbamoyl)piperidin-1-yl)-4-(2-chloroacetamido)-5-oxopentanoic acid] (ClAc-E[Pip]W[Phe(4-F)]-NH2)
Ki (Pin1 (GST-Pin1); read-out: Ki, μM (FP Assay)): 0.075 µM | Lysate Target Engagement? (Pin1 [1]): Yes-partial | Lysate Target Engagement? concentration stated for the engagement or pull down (Pin1 [1]): at 10 μM | Cellular Target Engagement? (Pin1 [2]): No

NC(=O)NCCC[C@H](NC(=O)[C@H](Cc1c[nH]c2ccccc12)NC(=O)[C@@H]1CCCCN1C(=O)[C@H](Cc1ccccc1)NC(=O)CCl)C(=O)NC1CC1 [Compound 11-38, (S)-1-((2-chloroacetyl)-L-phenylalanyl)-N—((S)-1-(((S)-1-(cyclopropylamino)-1-oxo-5-ureidopentan-2-yl)amino)-3-(1H-indol-3-yl)-1-oxopropan-2-yl)piperidine-2-carboxamide] (ClAc-F[Pip]W[Cit]-NHcPr)
Ki (Pin1 (GST-Pin1); read-out: Ki, μM (FP Assay)): 0.018 µM | Cellular Target Engagement? (Pin1 [2]): No

NC(=O)[C@H](Cc1ccc(O)cc1)NC(=O)[C@H](Cc1ccc2ccccc2c1)NC(=O)[C@@H]1CCCCN1C(=O)[C@H](CCC(=O)O)NC(=O)CCl [Compound 2-6, (S)-5-((S)-2-(((S)-1-(((S)-1-Amino-3-(4-hydroxyphenyl)-1-oxopropan-2-yl)amino)-3-(naphthalen-2-yl)-1-oxopropan-2-yl)carbamoyl)piperidin-1-yl)-4-(2-chloroacetamido)-5-oxopentanoic acid] (ClAc-E[Pip][2Nal]Y-NH2)
Ki (Pin1 (GST-Pin1); read-out: Ki, μM (FP Assay)): 0.28 µM | Cellular Target Engagement? (Pin1 [2]): No

CCOC(=O)[C@H](CCCNC(N)=O)NC(=O)[C@H](Cc1c[nH]c2ccccc12)NC(=O)[C@@H]1CCCCN1C(=O)[C@H](Cc1ccccc1)N(C)C(C)=O [Compound 18-1, Ethyl (S)-2-((S)-2-((S)-1-(N-acetyl-N-methyl-L-phenylalanyl)piperidine-2-carboxamido)-3-(1H-indol-3-yl)propanamido)-5-ureidopentanoate] (Ac-[NMeF][Pip]W[Cit]-OEt)
Ki (Pin1 (GST-Pin1); read-out: Ki, μM (FP Assay)): 1.9 µM | Cellular Target Engagement? (Pin1 [2]): No

Cc1ccc(CNC(=O)[C@H](CCCNC(N)=O)NC(=O)[C@H](Cc2c[nH]c3ccccc23)NC(=O)[C@@H]2CCCCN2C(=O)[C@H](CCC(=O)O)NC(=O)CCl)cc1 [Compound 11-6, (S)-5-((S)-2-(((S)-3-(1H-indol-3-yl)-1-(((S)-1-((4-methylbenzyl)amino)-1-oxo-5-ureidopentan-2-yl)amino)-1-oxopropan-2-yl)carbamoyl)piperidin-1-yl)-4-(2-chloroacetamido)-5-oxopentanoic acid] (ClAc-E[Pip]W[Cit]-{NH(4-Me-benzyl)})
Ki (Pin1 (GST-Pin1); read-out: Ki, μM (FP Assay)): 0.01 µM | Cellular Target Engagement? (Pin1 [2]): No

Cc1ccc(CNC(=O)[C@H](Cc2ccc(F)cc2)NC(=O)[C@H](Cc2c[nH]c3ccccc23)NC(=O)[C@@H]2CCCCN2C(=O)[C@H](CCC(=O)O)NC(=O)CCl)cc1 [Compound 11-5, (S)-4-(2-chloroacetamido)-5-((S)-2-(((S)-1-(((S)-3-(4-fluorophenyl)-1-((4-methylbenzyl)amino)-1-oxopropan-2-yl)amino)-3-(1H-indol-3-yl)-1-oxopropan-2-yl)carbamoyl)piperidin-1-yl)-5-oxopentanoic acid] (ClAc-E[Pip]W[Phe(4-F)]-{NH(4-Me-benzyl)})
Ki (Pin1 (GST-Pin1); read-out: Ki, μM (FP Assay)): 0.13 µM | Cellular Target Engagement? (Pin1 [2]): No
